Experimental data reported in ChEMBL document CHEMBL1201862, “PubChem BioAssay data set” (2004).
Active and inactive are the calls of the source. For most assays here, no stated cut-off is given here; in the data, actives have a measured EC50 and inactives only a lower limit.

Experiments:
[1] = biological target: Luciferin 4-monooxygenase (Photinus pyralis, UniProt P08659); test: firefly luciferase enzyme inhibitors, dose response, biochemical, luminescence (AID 1891)
[2] = Luminescence Cell-Based Dose Confirmation HTS to Identify Inhibitors of Platelet Dense Granule Release. [Related pubchem assays: 1663 (Primary HTS), 1678 (Summary of Project)]; format: functional
[3] = C. albicans growth with fluconazole, confirmation, fluorescence, retest (AID 2467); format: functional, cell-based
[4] = NIH-3T3 fibroblast cytotoxicity, dose response, cytotoxicity control, cell-based, fluorescence, Alamar Blue, secondary assay (AID 2327); format: functional;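 further: NIH-3T3 mouse fibroblasts cultured with fluconazole at 8 µg/mL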
[5] = biological target: T1, Calpain-2 catalytic subunit (Sus scrofa, UniProt P43367); test: pig calpain II inhibitor potency, dose response, biochemical, fluorogenic peptide substrate (AID 1420); format: functional
T1 sequence (P43367 whole entry): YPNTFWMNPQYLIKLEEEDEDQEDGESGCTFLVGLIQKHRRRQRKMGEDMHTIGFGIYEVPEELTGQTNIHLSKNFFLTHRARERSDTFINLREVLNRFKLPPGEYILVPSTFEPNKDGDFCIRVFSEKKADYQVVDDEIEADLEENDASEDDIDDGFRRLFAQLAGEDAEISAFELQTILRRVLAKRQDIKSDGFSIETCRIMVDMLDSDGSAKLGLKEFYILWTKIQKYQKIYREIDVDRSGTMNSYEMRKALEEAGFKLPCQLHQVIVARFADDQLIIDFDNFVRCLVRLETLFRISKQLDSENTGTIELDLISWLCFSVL

BJ [6] = test: cells; format: functional, cell-based; conditions: Homo sapiens
BJ [7] = test: cytotoxicity toward BJ-TERT-LT-ST fibroblasts, dose response, cell-based, RAS-independent, luminescence (AID 1935); format: functional; conditions: Homo sapiens;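 further: BJ fibroblasts immortalized with TERT plus LT and ST oncogenes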
BJ [8] = test: cytotoxicity toward BJ-TERT fibroblasts, dose response, cell-based, RAS-independent, luminescence (AID 1933); format: functional; conditions: Homo sapiens
[9] = cytotoxicity toward DRD oncogenic fibroblasts, dose response, cell-based, non-viral oncogenic, luminescence (AID 1934); format: functional; conditions: Homo sapiens
[10] = growth suppression of beta-catenin-knockout colon cells, dose response, cell-based, HCT116, human colon tumor (AID 1045); format: functional;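 further: HCT116 colon tumor cells with beta catenin knocked out; cells exposed to compound for 60 hours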
[11] = inhibitors of SNCA 5'UTR-driven reporter translation, confirmation, H4 neuroglioma cells, luminescence (AID 1988); format: functional, cell-based
[12] = Luminescence Cell-Based Dose Response HTS to Identify Inhibitors of 5'UTR Stem-Loop Driven Prion Protein mRNA Translation in H4 Neuroglioblastoma Cells. [Related pubchem assays: 1827 (Project Summary), 1813 (Primary HTS)]; format: functional
[13] = growth suppression of PTEN-null colon cells, dose response, cell-based, HCT116 PTEN knockout (AID 1047); format: functional;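 further: HCT116 colon tumor cells with PTEN knocked out; cells exposed to compound for 60 hours before readout; potency for loss of cell viability measured by luminescence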
[14] = inhibitors of firefly luciferase expression or activity, dose response, H4 neuroglioma cells, luminescence (AID 1990); format: functional, cell-based
H4 = test: Luminescence Cell-Based Dose Response HTS to Identify Activators of 5'UTR Stem-Loop Driven Prion Protein mRNA Translation in H4 Neuroglioblastoma Cells. [Related pubchem assays: 1829 (Project Summary), 1814 (Primary HTS)]; format: functional; conditions: Homo sapiens
[15] = Luminescence Cell-Based Dose Response HTS to Identify Activators of Luciferase Translation or Activity in H4 […] Cells. [Related pubchem assays: 1829 (Project Summary), 1814 (Primary HTS)]; format: functional
Paired box protein Pax-8 = Paired box protein Pax-8 (Homo sapiens, UniProt Q06710); test: inhibitors of PAX8-driven TPO luciferase reporter, dose response, RMG-I cells, cherry-pick (AID 687027); format: functional, cell-based;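 further: luciferase reporter driven by Pax8 target thyroperoxidase promoter measured by SteadyGlo luminescence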
[16] = inhibitors of intracellular T. cruzi replication, confirmation, NIH3T3 host cells, beta-gal luminescence (AID 2044); format: functional, cell-based;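 further: intracellular parasites grown in NIH/3T3 mouse fibroblasts as host cells; luminescent beta-galactosidase reporter signal from transgenic T. cruzi replicating inside host cells; inhibitors lower the luminescence signal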
[17] = cytotoxicity toward NIH3T3 fibroblasts, dose response, counter-screen, cell-based, ATP luminescence, mouse fibroblasts (AID 2010); format: functional;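 further: cells exposed to compound for about 90 hours before reading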

Sequence of Luciferin 4-monooxygenase (P08659 whole entry): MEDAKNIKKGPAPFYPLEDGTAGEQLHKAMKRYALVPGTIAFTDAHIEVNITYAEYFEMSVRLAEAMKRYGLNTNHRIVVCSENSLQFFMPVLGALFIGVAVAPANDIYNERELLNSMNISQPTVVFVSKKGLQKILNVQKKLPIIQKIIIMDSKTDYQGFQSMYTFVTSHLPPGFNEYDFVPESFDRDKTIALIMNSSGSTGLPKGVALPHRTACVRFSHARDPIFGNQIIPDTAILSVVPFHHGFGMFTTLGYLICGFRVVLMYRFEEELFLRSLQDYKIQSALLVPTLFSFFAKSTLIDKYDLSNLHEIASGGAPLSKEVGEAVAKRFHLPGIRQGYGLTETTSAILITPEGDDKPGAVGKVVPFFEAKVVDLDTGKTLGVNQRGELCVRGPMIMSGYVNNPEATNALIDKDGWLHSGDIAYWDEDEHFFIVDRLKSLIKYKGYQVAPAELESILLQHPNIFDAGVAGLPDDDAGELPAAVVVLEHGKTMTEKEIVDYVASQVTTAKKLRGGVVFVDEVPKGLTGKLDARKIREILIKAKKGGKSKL
Sequence of Paired box protein Pax-8 (Q06710 whole entry): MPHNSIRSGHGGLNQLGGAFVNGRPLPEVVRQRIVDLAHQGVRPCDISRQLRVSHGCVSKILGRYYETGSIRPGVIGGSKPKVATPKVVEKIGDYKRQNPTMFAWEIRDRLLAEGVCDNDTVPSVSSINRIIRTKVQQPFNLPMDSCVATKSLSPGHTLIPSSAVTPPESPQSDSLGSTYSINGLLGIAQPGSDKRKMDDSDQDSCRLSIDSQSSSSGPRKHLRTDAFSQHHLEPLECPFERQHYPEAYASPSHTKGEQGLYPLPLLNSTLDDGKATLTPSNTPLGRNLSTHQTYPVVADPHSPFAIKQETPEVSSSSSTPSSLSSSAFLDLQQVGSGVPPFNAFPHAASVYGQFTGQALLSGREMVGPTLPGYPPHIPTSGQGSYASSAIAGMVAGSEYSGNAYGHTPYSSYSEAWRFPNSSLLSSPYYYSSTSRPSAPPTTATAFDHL

Question: With `COc1ccc(C(=O)Nc2cccc(C)c2)cc1` as the compound, how does the EC50 [1] read?
Answer: The EC50 was 16.1 µM (active).

Question: What about the EC50 [2] of the same compound?
Answer: Its EC50 is 7.08 µM (active).

Question: What does the source list for `CCNS(=O)(=O)c1ccc(NC(=O)c2cccnc2)cc1`?
Answer: EC50 [1]: > 112 µM (not active); EC50 [3]: > 38 µM (not active); EC50 [4]: > 160 µM (inactive); EC50 [2]: > 112 µM (not active)

Question: Which IC50 [5] does the source give for `COC(=O)c1ccccc1NC(=S)NC(=O)COc1ccccc1` here?
Answer: Its IC50 is 6.37 µM (not active).

Question: With `CC(C)CC(C(=O)OCC(=O)c1c(N)n(C)c(=O)n(C)c1=O)N1C(=O)C2CC=CCC2C1=O` (stereo not given) as the compound, how does the IC50 [5] read?
Answer: The IC50 was 12.9 µM (not active).

Question: With `Cn1c(=O)[nH]c(=O)c2[nH]c(N(Cc3ccccc3)Cc3ccccc3)nc21` as the compound, how does the IC50 [5] read?
Answer: Its IC50 is > 50 µM (not active).

Question: With `Cn1c(NC(=O)Cc2cccs2)cc(=O)n(C)c1=O` as the compound, how does the EC50 [1] read?
Answer: The EC50 was > 112 µM (not active).

Question: And the EC50 [2]?
Answer: The EC50 was > 112 µM (not active).

Question: Which IC50 [5] does the source give for `CC(=O)c1ccc(N=C(S)N(Cc2ccccc2)C(C)C2CC2)cc1` (stereo not given) here?
Answer: The IC50 was 23.9 µM (not active).

Question: With `CC1N(O)C(c2ccc(Cl)cc2Cl)N(O)C1(C)C` (stereo not given) as the compound, how does the EC50 [1] read?
Answer: Its EC50 is > 112 µM (not active).

Question: What about the EC50 [2] of the same compound?
Answer: Its EC50 is > 112 µM (not active).

Question: Which IC50 [5] does the source give for `O=C(NCc1cccc(Cl)c1)c1ccc2c(c1)SC1=NS(=O)(=O)CCN12` here?
Answer: Its IC50 is 14.8 µM (not active).

Question: Which IC50 [5] does the source give for `CC(C)(C)NC(=O)c1cc(C(C)(C)C)c(O)c(C(C)(C)C)c1` here?
Answer: The IC50 was 3.38 µM (not active).

Question: With `COc1ccc(NC(=O)CN(c2ccccc2)S(=O)(=O)c2ccccc2)c(OC)c1` as the compound, how does the IC50 [5] read?
Answer: Its IC50 is 49.3 µM (not active).

Question: For `c1ccc(CCn2nnnc2CN2CCN(C3CCCC3)CC2)cc1`, which IC50 [5] is on record?
Answer: Its IC50 is > 50 µM (not active).

Question: Which EC50 (BJ [6]) does the source give for `N#Cc1ccsc1NC(=O)CCc1ccccc1` here?
Answer: The EC50 was 34.1 µM (active).

Question: And the EC50 (BJ [7])?
Answer: The EC50 was 18.1 µM (active).

Question: And the EC50 (BJ [8])?
Answer: The EC50 was 15.7 µM (active).

Question: What about the EC50 [9] of the same compound?
Answer: Its EC50 is 19.3 µM (active).

Question: Which IC50 [5] does the source give for `O=[N+]([O-])c1ccc2c(c1)C(N1CCOCC1)/C(=C/COc1ccc(Cl)cc1Cl)O2` (stereo not given) here?
Answer: Its IC50 is 5.41 µM (not active).

Question: With `COC(=O)c1cc2n(n1)CCN(Cc1ccc(F)cc1)C2=O` as the compound, how does the EC50 [1] read?
Answer: The EC50 was > 112 µM (not active).

Question: What about the EC50 [2] of the same compound?
Answer: Its EC50 is > 112 µM (not active).

Question: Which results are given for `COc1cc2c(cc1OC)-c1cc(Nc3ccc(C)cc3)nc(=O)n1CC2`?
Answer: EC50 [1]: > 112 µM (not active); EC50 [2]: 3.46 µM (active)

Question: Which EC50 [1] does the source give for `CC(Sc1ccccc1)C(=O)Nc1ccccc1C(=O)N1CCOCC1` (stereo not given) here?
Answer: The EC50 was > 112 µM (not active).

Question: What about the EC50 [2] of the same compound?
Answer: The EC50 was > 112 µM (not active).

Question: What does the source list for `CC(=O)Nc1cccc(NC(=O)C(=O)Nc2ccc3c(c2)N(C(=O)C2CC2)CCC3)c1`?
Answer: EC50 [1]: 31 µM (active); EC50 [2]: > 112 µM (not active)

Question: With `CCCCOc1ccccc1NC(=O)Cn1c(-c2nonc2N)nc2ccccc21` as the compound, how does the EC50 (BJ [6]) read?
Answer: Its EC50 is 7.06 µM (active).

Question: And the EC50 [10]?
Answer: The EC50 was 0.163 µM (active).

Question: What about the EC50 [11] of the same compound?
Answer: The EC50 was 2.49 µM (active).

Question: What about the EC50 (BJ [7]) of the same compound?
Answer: Its EC50 is 3.73 µM (inconclusive).

Question: And the EC50 [12]?
Answer: Its EC50 is 8.28 µM (active).

Question: What about the EC50 (BJ [8]) of the same compound?
Answer: The EC50 was 3.38 µM (active).

Question: What about the EC50 [13] of the same compound?
Answer: Its EC50 is 0.254 µM (active).

Question: What about the EC50 [14] of the same compound?
Answer: Its EC50 is 7.21 µM (inconclusive).

Question: And the EC50 [9]?
Answer: The EC50 was 4.23 µM (active).

Question: For `Cc1c(C(=O)NCc2ccoc2)oc2ccc3c(c12)C(=O)CC(C)(C)O3`, which EC50 (H4) is on record?
Answer: Its EC50 is > 120 µM (not active).

Question: And the EC50 [15]?
Answer: Its EC50 is 33.7 µM (active).

Question: With `O=C(CSc1ncc(C(F)(F)F)cc1Cl)N1CCN(S(=O)(=O)c2ccc(Cl)cc2)CC1` as the compound, how does the IC50 [5] read?
Answer: Its IC50 is 4.37 µM (not active).

Question: For `Cc1ccc(CCc2nnc(SCC(=O)Nc3cccc(Cl)c3)n2-c2ccccc2)o1`, which AC50 (Paired box protein Pax-8) is on record?
Answer: Its AC50 is 25.4 µM (active).

Question: Which EC50 [16] does the source give for `CCOC(=O)C1=C(CNCCc2ccc(Cl)cc2)NC(=O)NC1c1ccc2c(c1)OCO2` (stereo not given) here?
Answer: The EC50 was 13.3 µM (active).

Question: And the IC50 [5]?
Answer: The IC50 was > 50 µM (not active).

Question: What about the EC50 [17] of the same compound?
Answer: Its EC50 is > 60 µM (not active).

Question: With `COCCCNC(=O)Cn1c(=O)n(CCCCCC(=O)Nc2ccccc2)c(=O)c2sccc21` as the compound, how does the EC50 [1] read?
Answer: The EC50 was > 112 µM (not active).

Question: What about the EC50 [2] of the same compound?
Answer: The EC50 was > 112 µM (not active).

Question: With `Cc1ccc(C)c(C2NC(=O)c3ccccc3N2)c1` (stereo not given) as the compound, how does the EC50 (BJ [6]) read?
Answer: Its EC50 is 93.9 µM (active).

Question: And the EC50 (BJ [7])?
Answer: Its EC50 is 18.2 µM (active).

Question: What about the EC50 (BJ [8]) of the same compound?
Answer: The EC50 was 9.8 µM (inconclusive).

Question: And the EC50 [9]?
Answer: Its EC50 is 19.3 µM (inconclusive).

Question: Which EC50 (BJ [6]) does the source give for `CN1CCN(C(=O)/C=C/c2ccc([N+](=O)[O-])o2)CC1` here?
Answer: Its EC50 is > 150 µM (not active).

Question: And the EC50 (BJ [7])?
Answer: Its EC50 is > 150 µM (not active).

Question: What about the EC50 (BJ [8]) of the same compound?
Answer: The EC50 was 44.6 µM (active).

Question: What about the EC50 [9] of the same compound?
Answer: Its EC50 is > 150 µM (not active).

Question: For `C[C@@H]1CN([C@H](C)CO)S(=O)(=O)c2ccc(C#Cc3ccncc3)cc2O[C@H]1CN(C)C(=O)Nc1ccc2c(c1)OCO2`, which AC50 (Paired box protein Pax-8) is on record?
Answer: Its AC50 is 3.68 µM (active).

Question: Which AC50 (Paired box protein Pax-8) does the source give for `C[C@@H]1CN([C@H](C)CO)C(=O)c2cc(NS(=O)(=O)c3ccc(F)cc3)ccc2O[C@@H]1CN(C)Cc1ccc(C(F)(F)F)cc1` here?
Answer: Its AC50 is 22.2 µM (active).

Question: Which EC50 (BJ [6]) does the source give for `NC(=O)N/N=C/c1cn(-c2ccccc2)nc1-c1cccs1` here?
Answer: The EC50 was > 150 µM (not active).

Question: What about the EC50 (BJ [7]) of the same compound?
Answer: Its EC50 is > 150 µM (not active).

Question: What about the EC50 (BJ [8]) of the same compound?
Answer: Its EC50 is 19.4 µM (active).

Question: What about the EC50 [9] of the same compound?
Answer: The EC50 was 36 µM (active).

Question: With `COc1ccc(/C=N/Nc2nn3cnnc3c3ccccc23)cc1` as the compound, how does the IC50 [5] read?
Answer: Its IC50 is 5.99 µM (not active).

Question: For `CC(C)NC(=S)N/N=C/c1ccc2c(c1)OCCO2`, which IC50 [5] is on record?
Answer: Its IC50 is > 50 µM (not active).
